The results in this text go back to patent US9045498B2, “Hexahydropyrano[3,4-d][1,3]thiazin-2-amine compounds” (Pfizer Inc., priority 2012, dated 2015).

The structures appear in SMILES notation.

Experiment [1] addresses BACE1 enzyme (Homo sapiens (Human), UniProt P56817). Description: BACE1 Cell-Free Assay (fluorescence polarization). To be noted: geometric mean of 2-3 determinations; pH 4.5, 3 hours at 37° C. It counts as biochemical. The text has this:
This assay measures the inhibition of the beta-secretase enzyme as it cleaves a non-native peptide.
A synthetic APP substrate that can be cleaved by beta-secretase having N-terminal biotin and made fluorescent by the covalent attachment of Oregon Green at the Cys residue is used to assay beta-secretase activity in the presence or absence of the inhibitory compounds. […] The BACE1 enzyme is affinity purified material from conditioned media of CHO-K1 cells that have been transfected with a soluble BACE construct (BACE1deltaTM96His). Compounds are incubated in a ½ log dose response curve from a top concentration of 100 μM with BACE1 enzyme and the biotinylated fluorescent peptide in 384-well black plates (Thermo Scientific #4318). BACE1 is at a final concentration of 0.1 nM with a final concentration of peptide substrate of 150 nM in a reaction volume of 30 μL assay buffer (100 mM sodium acetate, pH 4.5 (brought to pH with acetic acid), and 0.001% Tween-20). Plates are covered and incubated for 3 hours at 37° C. The reaction is stopped with the addition of 30 μL of 1.5 μM Streptavidin (Pierce, #21125). After a 10 minute incubation at room temperature, plates are read on a PerkinElmer EnVision for fluorescence polarization (Ex485 nm/Em530 nm). The activity of the beta-secretase enzyme is detected by changes in the fluorescence polarization that occur when the substrate is cleaved by the enzyme.

Experiment [2] concerns sAPPβ levels in H4 human neuroglioma cells over-expressing the wild-type human APP695. Description: Whole Cell Assay (In Vitro sAPPb Assay). It counts as cell-based. The note with it: 18 hours treatment, geometric mean of 2-3 determinations (4-7 where marked d). Here is the method: Whole Cell Assay (In Vitro sAPPb Assay):
H4 human neuroglioma cells over-expressing the wild-type human APP695 are treated for 18 hours with compound in cell growth media having a final concentration 1% DMSO. sAPPβ levels are measured using either TMB-ELISA or Pierce SuperSignal ELISA Pico Chemiluminescent Substrate (Pierce 37069) with capture APP N-terminal antibody (Affinity BioReagents, OMA1-03132), wild-type sAPPβ specific reporter p192 (Elan), and tertiary anti rabbit-HRP (GE Healthcare).

Experiment [3] deals with BACE2 enzyme (Homo sapiens (Human), UniProt Q9Y5Z0). Put plainly: BACE2 Cell-free Assay (fluorescence polarization). It counts as biochemical. To be noted: pH 4.5, 3 hours at 37° C.; number of determinations per footnote a, b, d. As to the method: This assay measures the inhibition of the BACE2 enzyme as it cleaves a non-native peptide. A synthetic substrate that can be cleaved by BACE2 having N-terminal biotin and made fluorescent by the covalent attachment of Oregon Green at the Cys residue is used to assay BACE2 activity in the presence or absence of the inhibitory compounds. The substrate is Biotin-[…]-C(Oregon green)-KK-OH. The BACE2 enzyme is available from Enzo Life Sciences (Cat # BML-SE550). Compounds are incubated in a ½ log dose response curve from a top concentration of 100 μM with BACE2 enzyme and the biotinylated fluorescent peptide in 384-well black plates (Thermo Scientific #4318). BACE2 is at a final concentration of 2.5 nM with a final concentration of peptide substrate of 150 nM in a reaction volume of 30 μL assay buffer (100 mM sodium acetate, pH 4.5 (brought to pH with acetic acid), and 0.001% Tween-20). Plates are covered and incubated for 3 hours at 37° C. The reaction is stopped with the addition of 30 μL of 1.5 μM Streptavidin (Pierce, #21125). After a 10 minute incubation at room temperature, plates are read on a Perkin Elmer EnVision for fluorescence polarization (Ex485 nm/Em530 nm). The activity of the beta-secretase enzyme is detected by changes in the fluorescence polarization that occur when the substrate is cleaved by the enzyme.
Sequence of BACE2 enzyme (Q9Y5Z0 63-518): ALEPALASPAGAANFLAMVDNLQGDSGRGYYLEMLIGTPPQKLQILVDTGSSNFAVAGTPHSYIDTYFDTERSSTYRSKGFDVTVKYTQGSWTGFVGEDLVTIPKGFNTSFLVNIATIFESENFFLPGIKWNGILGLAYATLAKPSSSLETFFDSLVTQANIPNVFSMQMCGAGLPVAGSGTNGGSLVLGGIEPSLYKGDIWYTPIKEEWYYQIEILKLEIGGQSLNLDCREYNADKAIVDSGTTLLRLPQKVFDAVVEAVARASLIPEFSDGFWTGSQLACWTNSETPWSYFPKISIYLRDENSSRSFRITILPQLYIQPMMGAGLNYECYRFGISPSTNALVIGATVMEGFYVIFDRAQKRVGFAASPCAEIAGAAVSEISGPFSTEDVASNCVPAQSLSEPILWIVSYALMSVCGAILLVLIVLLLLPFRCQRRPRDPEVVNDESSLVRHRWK
In general terms: Fluorescence polarisation rises when a labelled molecule tumbles more slowly, as on binding a larger partner.

Sequence of BACE1 enzyme (P56817 46-457): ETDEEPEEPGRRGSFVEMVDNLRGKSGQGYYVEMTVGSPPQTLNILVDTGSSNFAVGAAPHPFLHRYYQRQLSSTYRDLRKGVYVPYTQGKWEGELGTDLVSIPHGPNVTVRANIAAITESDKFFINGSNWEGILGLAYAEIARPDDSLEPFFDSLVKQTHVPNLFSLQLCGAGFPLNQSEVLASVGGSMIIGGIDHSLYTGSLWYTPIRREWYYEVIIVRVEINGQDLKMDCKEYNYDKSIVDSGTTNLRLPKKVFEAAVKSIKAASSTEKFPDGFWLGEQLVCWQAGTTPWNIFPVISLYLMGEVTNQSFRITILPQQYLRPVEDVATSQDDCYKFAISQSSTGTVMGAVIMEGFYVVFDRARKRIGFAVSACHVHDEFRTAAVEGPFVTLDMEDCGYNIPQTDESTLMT

Usually IC50 stands for the midpoint of a concentration-inhibition curve. In the case of `Cn1cc([C@H]2C[C@H]3CSC(N)=N[C@@]3(c3cc(CNCC(F)(F)F)ccc3F)CO2)cn1` (relative stereo) [Example 16, rel-(4aR,6R,8aS)-8a-(2-Fluoro-5-{[(2,2,2-trifluoroethyl)amino]methyl}phenyl)-6-(1-methyl-1H-pyrazol-4-yl)-4,4a,5,6,8,8a-hexahydropyrano[3,4-d][1,3]thiazin-2-amine], the concentration for half-maximal inhibition (IC50) is 19 nM in experiment [1], 1.88 nM in experiment [2] and 108 nM in experiment [3].
